For test [1], the system named is arterial thrombosis induced by laser beam in the mesenteric microcirculation of the rat. Kind of test: Laser-induced thrombosis in the mesenteric microcirculation. Type of test: in vivo. The source says:
A/Principle of Laser-induced Thrombosis (Seiffge D. et al., 1989; Weichter W. et al., 1983).
In this model, lesion of the vascular wall is induced by a laser beam. This beam causes a limited lesion of the vascular endothelium (only 1 to 2 cells are destroyed). This laying bare of the sub-endothelium, which is a thrombogenetic surface, results in the adherence of platelets via […]. This adherence of platelets is followed by the activation thereof. They form pseudopods and secrete the content of their granules. This activation results in the appearance of glycoproteins IIb-IIIa which are necessary for the aggregation of the platelets between them. This lesion is induced in the mesenteric microcirculation of the rat. It is immediately followed by the formation of a thrombus (in a few seconds). This thrombus, which rapidly enlarges under the influence of the flow of blood, embolises before being formed again.
By this manes, the assessment of the effect of glycine betaine was conducted pharmacologically in conjunction with the study of two active molecules used as a reference; namely acetylsalicylic acid and heparin (of low molecular weight). The assessment also involved the activity of glycine betaine in relation to the prothrombotic effects induced by contrasting products.
Male Wistar rats were used for these tests. They weighed between 200 and 250 grams. After an 8-day stabilisation period, the rats were subjected to fasting for 12 hours. They were then anaesthetised, glycine betaine was administered subcutaneously, and the mesentery (laser) or vena cava (stasis) was opened at the end of the experiments.

In test [2] the test system is coagulation (Fibrinogen, APTT, Prothrombin Time, Anti-Xa activity). Kind of test: Plasma fibrinogen, APTT, prothrombin time and anti-Xa in heparinized rat. The note with it: Example 37. Type of test: in vivo. An excerpt: This example investigated the effect of delayed betaine administration in an antidote type administration inhibited the bleeding time and volume of blood loss induced by heparin treatment in a rat. Twenty male Wistar rats were purchased from Charles River, France and were acclimated for one week prior to the tests. Each rat was weighed prior to testing (weights ranged from 240-340 g with a mean weight of 275 g) and divided into 2 groups of 10 animals each. One group received an injection of heparin (5 mg/kg) at T0. The second group received a heparin injection (5 mg/kg) at T0, and a betaine injection (10 mg/kg) at T0+30 minutes. Both groups were subjected to a bleeding test at T0+60 minutes. The testing was performed using the previously described methodology with slight modifications. The tails were sectioned at 5-8 mm from the extremity. After transection, the proximal end of the tail was placed in a tube and blood was permitted to drip freely into a reservoir of 3.8% citrate solution (1 ml) until bleeding stopped. Blood loss volumes were then determined using a 1000 μl pipette. At the end of the experiments, before euthanasia, blood was sampled by intracardiac puncture on Na-citrate (3.8%, 1:9) and centrifuged at 4000 rpm/min for 20 minutes in order to obtain Poor Platelet Plasma (PPP). Fibrinogen, APTT, Prothrombin Time (Quick) and Anti-Xa activity were determined using an Automatic Coagulation Laboratory ACL 200 (Instrumentation Laboratory, France). […] Betaine efficiency to reduce bleeding times was confirmed. The effect on the haemorrhage was also confirmed since there was a very significant reduction of the blood loss volumes when compared to the heparin group. The delayed administration of betaine after heparin treatment, designed to mimic an antidote mode of administration, almost restored the bleeding times and the volumes of blood loss in the 10 betaine-treated animals to normal.

Where [3] appears, read: 5 mg/ml/kg, Group I: injected 1 hour before.
Where [4] appears, read: 5 mg/ml/kg, Group II: injected 2 hours before.
Setting [5] is: 5 mg/ml/kg, Group III: injected 3 hours before.
Where [6] appears, read: 5 mg/ml/kg, Group IV: injected 4 hours before.
The mark [7] stands for this setting: 24 hours after sub cutaneous 10 mg/kg.
[8] abbreviates: 24 hours after sub cutaneous administration, title 20 mg/kg, table line 10 mg/kg.
The mark [9] stands for this setting: rat, after laser firings, glycine betaine 5 mg/kg, acetylsalicylic acid 100 mg/kg, heparin 2 mg/kg.
Setting [10] is: betaine 10 mg/kg 30 minutes after heparin 5 mg/kg.
Where [11] appears, read: heparin 5 mg/kg at T0, betaine 10 mg/kg at T0+30 minutes.

Values joined by “and” are separate entries in the source; they are usually repeats but may differ in a detail not shown here. Equal values may be shown once. Where only a bound is given, the exact number is not on record here.

For the compound `C[N+](C)(C)CC(=O)O` [Glycine betaine], the Duration of embolisation amounted to 0.51 ± 0.5 min in test [1] (setting [3]); 0.3 ± 0.23 min in test [1] (setting [4]); 1.00 ± 0.5 min in test [1] (setting [5]); 1.5 ± 0.6 min in test [1] (setting [6]); 1 ± 0 min in test [1] (setting [9]). Besides, the Number of emboles in test [1] (setting [3]) was 1.8 ± 1.44; in test [1] (setting [4]), 1.4 ± 1.18; in test [1] (setting [5]), 1.99 ± 0.4; in test [1] (setting [6]), 2.2 ± 0.69; in test [1] (setting [7]), 1 +/− 0; in test [1] (setting [8]), 0.66 +/− 0.57. Also, the Number of emboles in test [1] (oral 50 mg/kg, 6 hours) is on record as 2.33 +/− 0.57; in test [1] (oral 50 mg/kg, 24 hours), 2.33 +/− 0.57; in test [1] (oral 50 mg/kg, 48 hours) it was 4.33 +/− 0.57. The Number of firings came to 3.49 ± 1.07 in test [1] (setting [3]), 3.0 ± 1.5 in test [1] (setting [4]), 2.50 ± 1.25 in test [1] (setting [5]) and 2.7 ± 1.0 in test [1] (setting [6]). For the same compound, the Embolisation time in test [1] (setting [7]) was determined as 0 ± 0 min; in test [1] (setting [8]), 0 ± 0 min; in test [1] (oral 50 mg/kg, 1 hour), 0 ± 0 min; in test [1] (oral 50 mg/kg, 6 hours), 1 ± 0 min; in test [1] (oral 50 mg/kg, 24 hours) it was 1 ± 0 min. Further, the “Number of laser firing” value in test [1] (setting [7]) is listed as 3.33 +/− 0.57; in test [1] (setting [8]), 3.33 +/− 0.57; in test [1] (oral 50 mg/kg, 1 hour) it was 4 +/− 0; in test [1] (oral 50 mg/kg, 6 hours), 3.66 +/− 0.57; in test [1] (oral 50 mg/kg, 24 hours) it was 2.33 +/− 0.57. Besides, in test [1] (setting [9]), the “Number of emboles or embolies” value was 2 ± 0. Further, in test [2] (setting [10]), the “APTT prolongation despite betaine administration” value is given as “up to 6 ×”. Further, the “Animals with normalized Prothrombin times” value in test [2] (setting [10]) is on record as 8 out of 10. Also, in test [2] (setting [10]), the “Fibrinogen level change versus heparin” value is −10%. Besides, the “Fibrinogen level change versus the control” value in test [2] (setting [10]) is reported as −23%. The “Reduction of Anti-Xa activity, antidote group compared to the heparin group” value in test [2] (setting [10]) stood at 74%.

Heparin: in test [1] (setting [9]), the Duration of embolisation is 1 ± 0 min and the “Number of emboles or embolies” value is listed as 2.67 ± 0.52. In addition, in test [2] (setting [11]), the “APTT, Mean” value is above 180 s; the “APTT, individual rats” value was above 180 s; the “Anti-Xa, Mean” value is given as 1.37 IU/ml; the “Anti-Xa, individual rats” value was 1.35 IU/ml (2×) and 1.38 IU/ml (2×) and 1.37 IU/ml (2×) and 1.34 IU/ml and 1.41 IU/ml and 1.39 IU/ml (2×). In test [2] (setting [11]), the “Fibrinogen, Mean” value is on record as 1.82 g/L; the “Fibrinogen, individual rats” value was 2.15 g/L and 1.77 g/L and 2.1 g/L and 1.53 g/L and 1.62 g/L and 2.0 g/L and 1.55 g/L and 1.67 g/L and 1.57 g/L and 2.2 g/L; the “Quick (Prothrombin Time), Mean” value turned out to be 61.07 s; the “Quick (Prothrombin Time), individual rats” value was 52.3 s and 57.4 s and 55.3 s and 66.2 s and 66.0 s and 59.6 s and 64.6 s and 67.2 s and 62.2 s and 59.9 s.

The record behind these values is patent publication US7608640B2, “Glycine betaine and its use” (priority 2001, dated 2009).
